Experimental data taken from US7087634B2, “Cyclic AMP-specific phosphodiesterase inhibitors” (ICOS Corporation, priority 1999, dated 2006).
pIC50: −log10 of the molar value.

What was measured:
[1] = test system: TNFα release from human peripheral blood lymphocytes; assay: Lipopolysaccharide-stimulated TNFα release from human peripheral blood lymphocytes; assay type: cell-based; conditions: preliminary experiments
Method: The compounds of structural formulae (I) and (II) were tested for an ability to reduce TNFα secretions in human peripheral blood lymphocytes. The ability of a compound to reduce TNFα secretion is related to the EC50 value for the compound (i.e., the effective concentration of the compound capable of inhibiting 50% of the total TNFα).
To assess the ability of a compound to reduce TNFα secretion in human peripheral blood lymphocytes (PBL), the following tests were performed.
Heparinized blood (approximately 30 mL) drawn from human volunteers was mixed 1:1 with Dulbecco's modified phosphate-buffered saline. This mixture was mixed 1:1 with HISTOPAQUE® and centrifuged at 1,500 rpm at room temperature without braking in the swinging bucket of a Beckman model TJ6 centrifuge. Erythrocytes were centrifuged to the bottom of the tubes, and serum remained at the surface of the tubes. A layer containing lymphocytes sedimented between the serum and HISTOPAQUE® layers, and was removed by aspiration to a fresh tube. The cells were quantified and adjusted to […] and a 100 μL aliquot is placed into the wells of a 96 well plate. Test compounds and RPMI media (Gibco/BRL Life Sciences) are added to each of the wells 15 minutes prior to addition of bacterial LPS ([…]). The mixture was allowed to incubate for 20 hours at 37° C. in a humidified chamber. The cells then were separated by centrifuging at 800 rpm for 5 minutes at room temperature. An aliquot of 180 μL of supernatant was transferred to a new plate for determination of TNFα concentration. TNFα protein in the cell supernatant fluids was measured using a commercially available enzyme-linked immunosorbent assay (ELISA) (CYTOSCREEN® Immunoassay Kit from Biosource International).
(§1) The cell-based assay provided the following results for various compounds of the present invention. The EC50. values (i.e., effective concentration of the compound capable of inhibiting 50% of the total TNFα) illustrate the ability of the present compounds to inhibit LPS-stimulated TNFα release from human PBL.
as §1, with “various pyrazole” for “various”, “EC50” for “EC50.”, “concentrations” for “concentration”, “peripheral blood lymphocytes.” for “PBL.”

recombinant human PDE4 = conditions: background, reported value; read-out: reported IC50 with respect to recombinant human PDE4; cited from earlier work
serum TNFα = assay: Combined mouse endotoxin-stimulated TNFα release assay (serum TNFα); assay type: in vivo; conditions: female Balb/c mice, i.p., LPS model
Method: (§2) The purpose of this study was to determine the efficacy of PDE4 inhibitors in vivo in an LPS mouse model together with a determination with respect to central nervous system (CNS) side-effects manifested by a decrease in spontaneous mobility.
(§3) The test animals were female Balb/c mice, having an average weight of about 20 g. The PDE4 inhibitors, formulated in 30% Cremophor® EL, were administered via intraperitoneal (i.p.) injections at doses of 0.1, 1.0, 10.0, and 100 mg/kg. Individual dose volumes (about 150 μL) were adjusted based on the body weights measured. One hour later, 5 mg/kg LPS in a final volume of 200 μL was injected via the tail vein to each animal. Ninety minutes following the LPS treatment, the animals were bled and serum samples were collected before being stored at −70° C. until assayed.
For efficacy determination, the serum samples were diluted two-fold and TNFα levels were determined using the CYTOSCREEN® Immunoassay Kit (Biosource International). The data were averaged between triplicate sample subjects for each of the tested compounds.

[2] = Combined mouse locomotor activity assay (sedative / CNS side-effect scoring); assay type: in vivo; design: key: Vehicle control animals were rated a single “+”; animals that were effectively immobilized and stretched out on the bottom of the cage with little detectable movement were rated as “++++.”; conditions: female Balb/c mice, i.p., 10 mg/kg
Method: as §2, §3
For side-effect profiling, a subjective visual scoring system was utilized at 5 min and 20 min after administration of PDE4 inhibitors. […] In this instance, the subjects could be monitored continuously over pre-set intervals.
Movement of the X-Y plane, or rearing up on the hind legs, was quantified by counting the number of “light-beam” crosses per unit of time. […] The quantitative scoring correlated well with the subjective measurements described above.

| Structure (SMILES) | LPS-induced TNFα secretion from human lymphocytes [1] | pIC50 (recombinant human PDE4) | % TNFQ Inhibition (serum TNFα; 1 mg/kg) [%] | % TNFQ Inhibition (serum TNFα; 10 mg/kg) [%] | % TNFQ Inhibition (serum TNFα; 100 mg/kg) [%] | Sedative Effect [2] |
| --- | --- | --- | --- | --- | --- | --- |
| COc1ccc(C2CNC(=O)C2)cc1OC1CCCC1 (stereo not drawn) [Rolipram, reference compound] | inhibit LPS-induced TNFα secretion from human lymphocytes in a dose-dependent fashion | ~6.70 |  |  |  |  |
| COC(=O)N1C[C@@H](c2ccc(OC)c(OC3CCCC3)c2)[C@](C)(C(C)=O)C1 (relative stereo) [Comparative Example, trans-3-(3-cyclopentoxy-4-methoxyphenyl)-1-methoxycarbonyl-4-methyi-4-(methylcarbonyi)pyrrolidine] |  |  | 43 | 100 | 100 | + |
